According to PubChem BioAssay AID2060908 (Molecular Pharmacology Branch, DTP, NCI, 2025):
One block for each compound: values may come before it.

System: 186277-243-T-J2-PDC complex spheroids, viability
Assay: Anticancer human tumor 186277-243-T-J2-PDC patient-derived colon adenocarcinoma cell line growth inhibition [RAS]
Settings: for viability, T/C: stronger effect = lower value
Outline: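 Agents were tested in combination matrices in half-log decrements from a top concentration at or near clinical Cmax (10 microM if undetermined). Targets were multi-cell spheroids of tumour lines plus HUVEC and MSC stromal cells.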

[1] = curve of first compound, second compound 0.0316 µM
[2] = curve of first compound, second compound 0.1 µM
[3] = curve of first compound, second compound 0.316 µM
[4] = curve of first compound, second compound 1 µM
[5] = second compound 0.0316 µM, first compound 0.0316 µM
[6] = second compound 0.0316 µM, first compound 0.1 µM
[7] = second compound 0.0316 µM, first compound 0.316 µM
[8] = second compound 0.0316 µM, first compound 1 µM
[9] = second compound 0.1 µM, first compound 0.0316 µM
[10] = second compound 0.1 µM, first compound 0.1 µM
[11] = second compound 0.1 µM, first compound 0.316 µM
[12] = second compound 0.1 µM, first compound 1 µM
[13] = second compound 0.316 µM, first compound 0.0316 µM
[14] = second compound 0.316 µM, first compound 0.1 µM
[15] = second compound 0.316 µM, first compound 0.316 µM
[16] = second compound 0.316 µM, first compound 1 µM
[17] = second compound 1 µM, first compound 0.0316 µM
[18] = second compound 1 µM, first compound 0.1 µM
[19] = second compound 1 µM, first compound 0.316 µM
[20] = second compound 1 µM, first compound 1 µM
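Note: spheroids exposed to compounds for 7 days before viability read.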

IC50 (curve of first compound, second compound 0.000949 µM): 4.33 µM
IC50 (curve of first compound, second compound 0.003 µM): 4.48 µM
IC50 (curve of first compound, second compound 0.00949 µM): 4.38 µM
IC50 (curve of first compound, second compound 0.03 µM): 4.35 µM
IC50 (curve of first compound, second compound 0.0949 µM): 3.59 µM
IC50 (curve of first compound, second compound 0.3 µM): 1.17 µM
Structure (SMILES): CC1(O)CCCC1n1c(=O)c(C(F)F)cc2cnc(NC3CCN(S(C)(=O)=O)CC3)nc21 (stereo unspecified) + CCn1c(-c2cccnc2C(C)OC)c2c3cc(ccc31)N1CCOC(CC(NC(=O)C(C(C)C)N(C)C(=O)C3(F)CCN(C(=O)C#CC(C)(C)N(C)C)CC3)C(=O)N3CCCC(N3)C(=O)OCC(C)(C)C2)C1
viability, T/C (second compound 0.000949 µM, first compound 0.0316 µM): 129%
viability, T/C (second compound 0.000949 µM, first compound 0.1 µM): 113%
viability, T/C (second compound 0.000949 µM, first compound 0.316 µM): 122%
viability, T/C (second compound 0.000949 µM, first compound 1 µM): 86.7%
viability, T/C (second compound 0.000949 µM, first compound 3.16 µM): 74.8%
viability, T/C (second compound 0.000949 µM, first compound 10 µM): 1.88%
viability, T/C (second compound 0.003 µM, first compound 0.0316 µM): 96.5%
viability, T/C (second compound 0.003 µM, first compound 0.1 µM): 122%
viability, T/C (second compound 0.003 µM, first compound 0.316 µM): 104%
viability, T/C (second compound 0.003 µM, first compound 1 µM): 93.2%
viability, T/C (second compound 0.003 µM, first compound 3.16 µM): 71.7%
viability, T/C (second compound 0.003 µM, first compound 10 µM): 2.18%
viability, T/C (second compound 0.00949 µM, first compound 0.0316 µM): 116%
viability, T/C (second compound 0.00949 µM, first compound 0.1 µM): 116%
viability, T/C (second compound 0.00949 µM, first compound 0.316 µM): 115%
viability, T/C (second compound 0.00949 µM, first compound 1 µM): 84.3%
viability, T/C (second compound 0.00949 µM, first compound 3.16 µM): 75.7%
viability, T/C (second compound 0.00949 µM, first compound 10 µM): 2.28%
viability, T/C (second compound 0.03 µM, first compound 0.0316 µM): 111%
viability, T/C (second compound 0.03 µM, first compound 0.1 µM): 117%
viability, T/C (second compound 0.03 µM, first compound 0.316 µM): 108%
viability, T/C (second compound 0.03 µM, first compound 1 µM): 80.3%
viability, T/C (second compound 0.03 µM, first compound 3.16 µM): 77.2%
viability, T/C (second compound 0.03 µM, first compound 10 µM): 1.84%
viability, T/C (second compound 0.0949 µM, first compound 0.0316 µM): 108%
viability, T/C (second compound 0.0949 µM, first compound 0.1 µM): 113%
viability, T/C (second compound 0.0949 µM, first compound 0.316 µM): 80.9%
viability, T/C (second compound 0.0949 µM, first compound 1 µM): 73.3%
viability, T/C (second compound 0.0949 µM, first compound 3.16 µM): 69%
viability, T/C (second compound 0.0949 µM, first compound 10 µM): 1.68%
viability, T/C (second compound 0.3 µM, first compound 0.0316 µM): 114%
viability, T/C (second compound 0.3 µM, first compound 0.1 µM): 91.7%
viability, T/C (second compound 0.3 µM, first compound 0.316 µM): 56.2%
viability, T/C (second compound 0.3 µM, first compound 1 µM): 56.8%
viability, T/C (second compound 0.3 µM, first compound 3.16 µM): 53.8%
viability, T/C (second compound 0.3 µM, first compound 10 µM): 0.94%

IC50 [1]: 0.0209 µM
IC50 [2]: 0.00325 µM
IC50 [3]: < 0.00316 µM
IC50 [4]: < 0.00316 µM
IC50 (curve of first compound, second compound 3.16 µM): < 0.00316 µM
IC50 (curve of first compound, second compound 10 µM): < 0.00316 µM
Structure (SMILES): O=C(c1ccc(F)c(F)c1Nc1ccc(I)cc1F)N1CC(O)([C@@H]2CCCCN2)C1 + C#Cc1c(F)ccc2cc(O)cc(-c3ncc4c(N5CC6CCC(C5)N6)nc(OCC56CCCN5CC(F)C6)nc4c3F)c12
viability, T/C (second compound 0.0316 µM, first compound 0.00316 µM): 72.4%
viability, T/C (second compound 0.0316 µM, first compound 0.01 µM): 56.3%
viability, T/C [5]: 47.1%
viability, T/C [6]: 15.4%
viability, T/C [7]: 5.69%
viability, T/C [8]: 6.25%
viability, T/C (second compound 0.1 µM, first compound 0.00316 µM): 50%
viability, T/C (second compound 0.1 µM, first compound 0.01 µM): 40.8%
viability, T/C [9]: 20%
viability, T/C [10]: 9.26%
viability, T/C [11]: 6.29%
viability, T/C [12]: 3.94%
viability, T/C (second compound 0.316 µM, first compound 0.00316 µM): 18.9%
viability, T/C (second compound 0.316 µM, first compound 0.01 µM): 17.5%
viability, T/C [13]: 10.5%
viability, T/C [14]: 9.19%
viability, T/C [15]: 4.54%
viability, T/C [16]: 3.72%
viability, T/C (second compound 1 µM, first compound 0.00316 µM): 12.6%
viability, T/C (second compound 1 µM, first compound 0.01 µM): 9.81%
viability, T/C [17]: 8.46%
viability, T/C [18]: 6.3%
viability, T/C [19]: 4.16%
viability, T/C [20]: 3.53%
viability, T/C (second compound 3.16 µM, first compound 0.00316 µM): 9%
viability, T/C (second compound 3.16 µM, first compound 0.01 µM): 9.32%
viability, T/C (second compound 3.16 µM, first compound 0.0316 µM): 7.86%
viability, T/C (second compound 3.16 µM, first compound 0.1 µM): 5.98%
viability, T/C (second compound 3.16 µM, first compound 0.316 µM): 3.91%
viability, T/C (second compound 3.16 µM, first compound 1 µM): 3.32%
viability, T/C (second compound 10 µM, first compound 0.00316 µM): 6.85%
viability, T/C (second compound 10 µM, first compound 0.01 µM): 7.33%
viability, T/C (second compound 10 µM, first compound 0.0316 µM): 5.34%
viability, T/C (second compound 10 µM, first compound 0.1 µM): 3.85%
viability, T/C (second compound 10 µM, first compound 0.316 µM): 2.37%
viability, T/C (second compound 10 µM, first compound 1 µM): 1.61%

IC50 (curve of first compound, second compound 0.00316 µM): 4.05 µM
IC50 (curve of first compound, second compound 0.01 µM): 4.92 µM
IC50 [1]: 4.81 µM
IC50 [2]: 5.15 µM
IC50 [3]: 4.83 µM
IC50 [4]: 4.94 µM
Structure (SMILES): CC1(O)CCCC1n1c(=O)c(C(F)F)cc2cnc(NC3CCN(S(C)(=O)=O)CC3)nc21 (stereo unspecified) + C=CC(=O)N1CCN(c2nc(OCC3CCCN3C)nc3c(F)c(-c4nc(N)cc(C)c4C(F)(F)F)c(Cl)cc23)C(C)C1
viability, T/C (second compound 0.00316 µM, first compound 0.0316 µM): 95.5%
viability, T/C (second compound 0.00316 µM, first compound 0.1 µM): 113%
viability, T/C (second compound 0.00316 µM, first compound 0.316 µM): 101%
viability, T/C (second compound 0.00316 µM, first compound 1 µM): 99.3%
viability, T/C (second compound 0.00316 µM, first compound 3.16 µM): 63%
viability, T/C (second compound 0.00316 µM, first compound 10 µM): 2.71%
viability, T/C (second compound 0.01 µM, first compound 0.0316 µM): 92.8%
viability, T/C (second compound 0.01 µM, first compound 0.1 µM): 96.8%
viability, T/C (second compound 0.01 µM, first compound 0.316 µM): 93.5%
viability, T/C (second compound 0.01 µM, first compound 1 µM): 96.8%
viability, T/C (second compound 0.01 µM, first compound 3.16 µM): 79.3%
viability, T/C (second compound 0.01 µM, first compound 10 µM): 2.97%
viability, T/C [5]: 101%
viability, T/C [6]: 135%
viability, T/C [7]: 87.8%
viability, T/C [8]: 107%
viability, T/C (second compound 0.0316 µM, first compound 3.16 µM): 77.5%
viability, T/C (second compound 0.0316 µM, first compound 10 µM): 2.9%
viability, T/C [9]: 95.3%
viability, T/C [10]: 109%
viability, T/C [11]: 105%
viability, T/C [12]: 89.9%
viability, T/C (second compound 0.1 µM, first compound 3.16 µM): 87%
viability, T/C (second compound 0.1 µM, first compound 10 µM): 2.79%
viability, T/C [13]: 91.3%
viability, T/C [14]: 118%
viability, T/C [15]: 88.1%
viability, T/C [16]: 84.1%
viability, T/C (second compound 0.316 µM, first compound 3.16 µM): 81.8%
viability, T/C (second compound 0.316 µM, first compound 10 µM): 2%
viability, T/C [17]: 117%
viability, T/C [18]: 123%
viability, T/C [19]: 94.9%
viability, T/C [20]: 115%
viability, T/C (second compound 1 µM, first compound 3.16 µM): 80.7%
viability, T/C (second compound 1 µM, first compound 10 µM): 1.52%

IC50 (curve of compound): 4.81 µM [middle of 4 runs]
Structure (SMILES): CC1(O)CCCC1n1c(=O)c(C(F)F)cc2cnc(NC3CCN(S(C)(=O)=O)CC3)nc21 (stereo unspecified)
viability, T/C (compound 0.0316 µM): 108% [middle of 4 runs]
viability, T/C (compound 0.1 µM): 114% [middle of 4 runs]
viability, T/C (compound 3.16 µM): 83.6% [middle of 4 runs]
viability, T/C (compound 10 µM): 2.71% [middle of 4 runs]
